Measured values as given in patent US9840465B2 (priority 2013, dated 2017).
Where a name gives a salt, the structure may show the parent alone. Read-outs that look alike come from different tables or passages of the source.

Legend:
[1] = system: A2/Taiwan/1/64 (H2N2), M2 WT; test: microbe, parasite or virus in culture; assay type: cell-based; conditions: read-out: EC50 A2/Taiwan/1/64 (H2N2)
[2] = system: A/Victoria/3/75 (H3N2), M2 WT; test: microbe, parasite or virus in culture; assay type: cell-based; conditions: read-out: EC50 A/Victoria/3/75 (H3N2)

SMILES	EC50 ([1]; Influenza A virus, H2N2, MDCK)	EC50 ([2]; Influenza A virus, H3N2, MDCK)	EC50 [1]	EC50 [2]	other results
NC12CC3CC(CC(C3)C1)C2 [Amantadine (1), Amantadine, reference compound]	340 nM	2800 nM	–	–	–
CCCCC1(N)C2CC3CC(C2)CC1C3 (stereo not drawn) [Compound 17, (1r,3r,5r,7r)-2-butyladamantan-2-amine]	–	–	1500 nM	4000 nM	–
CCCC1(N)C2CC3CC(C2)CC1C3 (stereo not drawn) [Compound 7]	< 240 nM	23000 nM	–	–	–
CCCCCCC1(N)C2CC3CC(C2)CC1C3 (stereo not drawn) [Compound 101, 2-n-hexyl-tricyclo[3.3.1.1^3,7]decan-2-amine]	1500 nM	1100 nM	–	–	microscopic evidence of cytotoxicity to MDCK cells (MDCK cells): No microscopic evidence of cytotoxicity
CC(N)C12CC3CC(CC(C3)C1)C2 (stereo not drawn) [Rimantadine (2), Rimantadine, reference compound]	1600 nM	530 nM	–	–	–
CC(C)(N)C12CC3CC(CC(C3)C1)C2 [Compound 259, 2-(adamantan-1-yl)propan-2-amine]	1100 nM	3400 nM	–	–	–
CCC1CCC2(N1)C1CC3CC(C1)CC2C3 (stereo not drawn) (as salt: fumarate) [Compound 347, 5-ethylspiro[pyrrolidine-2,2′-tricyclo[3.3.1.1^3,7]decane]]	–	–	–	–	melting point: 191 to 193 °C (dec.)
CC(C)CC1(N)C2CC3CC(C2)CC1C3 (stereo not drawn) [Compound 18, (1r,3r,5r,7r)-2-isobutyladamantan-2-amine]	–	–	400 nM	13000 nM	–
NC1(Cc2ccccc2)C2CC3CC(C2)CC1C3 (stereo not drawn) [Compound 20, (1r,3r,5r,7r)-2-benzyladamantan-2-amine]	–	–	200 nM	18000 nM	–
NC1(c2ccccc2)C2CC3CC(C2)CC1C3 (stereo not drawn) [Compound 19, (1r,3r,5r,7r)-2-phenyladamantan-2-amine]	–	–	200 nM	8000 nM	–
CCCCCCC1(N)C2CC3CC(C2)CC1C3 (stereo not drawn) (as salt: fumarate) [Compound 101, 2-n-hexyl-tricyclo[3.3.1.1^3,7]decan-2-amine]	–	–	–	–	melting point: 225 °C
